How the values were obtained:
[1] = test system: Tetrahymena pyriformis W strain; assay: antiprotozoal activity, broth dilution method; assay type: cell-based; settings: 28° C., 44-48 hours, pH 7.0, read-out: Growth inhibition MIC Tetrahymena
[2] = test system: Hamigera; assay: antimycotic activity, paper disk inhibition circle; assay type: cell-based; settings: 48 h; 8 mm paper disk, 3 mg/ml, 37° C., 2 days; read-out: Growth inhibition Hamigera
Procedure: (§1) Referring to the antimycotic activity presented in Table 2, Cryptoccoccus neoformans and others were used as the test microbes, a paper disk (8 mm in diameter) was immersed in an aqueous solution of each test compound having a concentration of 3 mg/ml, air dried and placed on an agar medium, then incubation was conducted at 37° C. for 2 days, and the inhibition circle was measured. When the diameter of the inhibition circle was not larger than 8 mm, 8-10 mm, 10-20 mm, or larger than 20 mm, the activity was judged as -, ±, + or ++, respectively.

[3] = test system: Rhodotorula; assay: antimycotic activity, paper disk inhibition circle; assay type: cell-based; settings: 48 h, 8 mm paper disk, 3 mg/ml, 37° C., 2 days, read-out: Growth inhibition Rhodotorula
Procedure: as §1

[4] = test system: Cryptococcus neoformans; assay: antimycotic activity, paper disk inhibition circle; assay type: cell-based; settings: 48 h, 8 mm paper disk, 3 mg/ml, 37° C., 2 days, read-out: Growth inhibition Cryptococcus
Procedure: as §1

[5] = test system: Pyricularia oryzae; assay: microbe, parasite or virus in culture; assay type: cell-based
[6] = test system: Penicillium; assay: antifungal activity, serial dilution method; assay type: cell-based, Penicillium niger; settings: Penicillium niger (blue mold); 1% glucose-bouillon agar; read-out: MIC
[7] = hemolysis test by the method of Gottfried et al.; assay type: cell-based, human; settings: human, erythrocytes
Procedure: (§2) The compounds of this invention are of relatively low toxicity. For example, the compound of Example 7 causes no deaths in CDF1 mice even at an intraperitoneal dose of 100 mg/kg (observation period: one week). The hemolytic activity of these compounds is also low in general. For example, in a hemolysis test (with human erythrocytes) by the method of Gottfried et al. [J. Lipid Research, 4, 57 (1963)], the 50% hemolytic concentration of the compound of Example 15 was about 10 μg/ml.

[8] = test system: human erythrocytes; assay: hemolysis test by the method of Gottfried et al.; assay type: cell-based; settings: 5% human albumin, relative to without albumin
Procedure: as §2

[9] = test system: Sclerotinia sclerotiorum; assay: antifungal activity, serial dilution method; assay type: cell-based; settings: Sclerotinia sclerotiorum (kidney bean stem rot); 1% glucose-bouillon agar
[10] = test system: Colletotrichum lagenarium; assay: antifungal activity, serial dilution method; assay type: cell-based; settings: Colletotrichum orbiculare; Colletotrichum lagenarium (cucumber anthracnose); 1% glucose-bouillon agar; read-out: MIC
[11] = test system: Cochliobolus miyabeanus; assay: antifungal activity, serial dilution method; assay type: cell-based; settings: Bipolaris oryzae
[12] = test system: Botrytis cinerea; assay: antifungal activity, serial dilution method; assay type: cell-based; settings: Botrytis cinerea (gray mold); 1% glucose-bouillon agar
[13] = test system: Leptosphaeria salvinii; assay: antifungal activity, serial dilution method; assay type: cell-based; settings: Nakataea oryzae; Leptosphaeria salvinii (rice stem rot); 1% glucose-bouillon agar; read-out: MIC
[14] = test system: Aspergillus niger; assay: antifungal activity, serial dilution method; assay type: cell-based; settings: Aspergillus niger (black mold); 1% glucose-bouillon agar; read-out: MIC
[15] = test system: Saccharomyces cerevisiae; assay: antifungal activity, serial dilution method; assay type: cell-based; settings: Saccharomyces cerevisiae (brewer's yeast); 1% glucose-bouillon agar; read-out: MIC

Structure (SMILES): CCCCCCCCCCCCOCCOCCOP(=O)([O-])OCC[n+]1ccccc1 [Example 15, 2-[2-Dodecyloxy)ethoxy]ethyl 2-pyridinioethyl phosphate]
- MIC [1]: > 4 µg/mL
- zone of inhibition at 3000 µg/mL [2]: 10 to 20 mm
- zone of inhibition at 3000 µg/mL [3]: 10 to 20 mm
- zone of inhibition at 3000 µg/mL [4]: > 20 mm
- MIC [5]: 25 µg/mL
- MIC [6]: 12.5 µg/mL
- HC50 [7]: ~10 µg/mL
- 50% hemolytic concentration in the presence of human albumin [8]: several times as high
- MIC [9]: 25 µg/mL
- MIC [10]: 12.5 µg/mL
- MIC [11]: 25 µg/mL
- MIC [12]: 12.5 µg/mL
- MIC [13]: 25 µg/mL
- MIC [14]: 25 µg/mL
- MIC [15]: 50 µg/mL
